Assay results taken from patent publication US6001808A, “Method of treating herpes virus infections with spermostatic gramicidin” (Metatron, Inc., priority 1997, dated 1999).
Converted amounts (≈) assume the structure as drawn. Like-named read-outs stand apart in the source and are kept apart here.

What was measured:
[1] = tested on: VR-734 strain of HSV-2; experiment: Protection of WI-38 fibroblasts against cytolytic action of HSV, MTS assay day 5; assay type: cell-based, herpes simplex virus type 2 (HSV-2); conditions: day 5 postinfection, single dose
Method: Inoculated WI-38 cells were grown in the presence of ten-fold dilutions of gramicidin or ACV for five days until all untreated control cells were dead as a result of lytic HSV infection. The culture wells were then exposed for 4 hours to MTS tetrasolium salt and phenazine methosulfate preparation (Cell Titer^96, Promega, Madison, Wis.) and the optical density of formazan dye was measured in a plate reader at 450 nm with reference filter at 620 nm. The obtained values were then compared to both the absorbance values of dead cells and optical density of uninfected viable cells grown in the same plate. The percent of surviving WI-38 cells in drug-protected cultures was determined from dose-response curves as a function of log concentrations of test drugs.

[2] = tested on: HSV-1; experiment: HSV antigen ELISA, viral yield in WI-38 fibroblasts at 24 hours; assay type: cell-based, herpes simplex virus type 1 (HSV-1)
Method: (§1) The effect of gramicidin on the replication of herpes simplex viruses (HSV) type 1 and 2 has been examined and compared to the effect of acyclovir--the nucleoside analog used in the prior art for the therapy of herpes virus infections. Human WI-38 fibroblasts were inoculated with either type of HSV in the presence of serial dilutions of gramicidin (10-0.001 mcg/ml) and reduction in viral yield was measured at 24 hours by ELISA. […] The average 50% inhibitory dose (IC50) of gramicidin against 3 HSV-1 and 4 HSV-2 solates was equal to 0.3 mcg/ml and was similar to the efficacy of the anti-HSV agent acyclovir (ACV). The IC50 of a single dose of gramicidin required to protect WI-38 from cytolytic effect of HSV was 10 mcg/ml at day 5 postinfection. Importantly, gramicidin suppressed the replication of ACV-resistant thymidine kinase and polymerase HSV mutants at doses effective against ACV-sensitive strains.
(§2) Human embryonic lung fibroblasts WI-38 (CCL-75, ATCC, Rockville, Md.) were grown in RPMI medium 1640 with 10% FBS, L-glutamine, and penicillin/streptomycin (GIBCO, Grand Island, N.Y.) at 37° C. with 5% CO2 air atmosphere. Herpes viruses that were tested for susceptibility to gramicidin are own in Table 1.
(§3) One day prior to the assay WI-38 monolayers were trypsinized with 0.25% trypsin/EDTA (Sigma) and plated in 96-well microculture plates at seeding concentration 10^5 cells per well. The next day triplicate wells of WI-38 monolayers were exposed to serial 10-fold dilutions (range 10 mcg/ml-1 ng/ml) of gramicidin or ACV. Positive control wells and drug-exposed wells containing 180 mcl of medium received 20 mcl ahquots of HSV-1 or HSV-2 preparation at 5,000 TCID50 per well and were incubated further for 24 hours. Thereupon, the supernatants from infected WI-38 fibroblasts were collected and levels of HSV antigen were examined by ELISA (Premier™ HSV, Meridian Diagnostics Inc., Cincinnati, Ohio) according to the manufacturer's instructions. The primary antibody supplied with this ELISA kit recognizes HSV antigens of both virus types. The amount of HSV antigen, corresponding to levels in the inoculum, was subtracted as a blank value from experimental values reached upon virus propagation in host WI-38 cells. IC50 doses were estimated from dose-response curves plotted as a function of log concentrations of drugs.

[3] = tested on: HSV-2; experiment: as above; assay type: cell-based, herpes simplex virus type 2 (HSV-2)
Method: as §1, §2, §3

[4] = tested on: WI-38 cells; experiment: Viability of WI-38 cells by MTS assay
Method: (§4) The effect of test compounds on cell viability was measured by two colorimetric assays as follows. WI-38 cells were grown in the presence or absence of ten-fold dilutions of gramicidin or ACV for two days. The cells were then exposed to MTS/phenazine methosulfate as described above. The conditions for the second, lactate dehydrogenase (LDH) assay, were similar to the MTS test except that a different cell viability parameter was measured. This assay quantitatively measures the stable cytosolic enzyme, LDH, that is released upon cell lysis in much the same way as ^51 Cr is released in radioactive assays. The results were evaluated using an enzymatic assay which measures the conversion of INT tetrazolium salt into red formazan product (CytoTox^96, Promega, Madison, Wis.). A standard 96-well plate reader was set to record wavelength absorbance at 490 nm. The residual LDH activity present in incubation medium was subtracted as a blank value. The amount of LDH released from drug-exposed cells was compared to untreated and detergent-lysed controls according to the formula provided by the manufacturer.

[5] = tested on: sperm motility; experiment: 2-minute sperm immobilization assay (sperm motility by CASA); assay type: cell-based, human; conditions: for times higher dose required to achieve the effect of gramicidin: sperm motility, compounds alone
Method: The tests were conducted on unprocessed semen samples. […] Ejaculate samples from 3 normospermic volunteers were collected after 2-4 days of abstinence and allowed to liquefy for 20 minutes at 37° C. The sperm count was within the range of 60-240×10^6 cells/ml and the percentage of motile cells was over 50%. Serial dilutions of gramicidin, nonoxynol-9, EDTA or combinations thereof were mixed with fresh semen and sperm count, motility and morphology were assessed using computer-assisted semen analysis (CASA). Each 50 mcl sample of semen was mixed in a glass tube with predetermined concentration of test compounds, vortexed for 10 seconds, and left at room temperature for 2 minutes. Thereupon, a small 10 mcl portion of the sample was placed on a glass slide and motility of the sperm was evaluated automatically.

[6] = tested on: sperm penetration into lamb cervical mucus; experiment: Cervical mucus penetration assay; assay type: cell-based, human; conditions: for motility of spermatozoa found in drug-pretreated mucus: at the time of observation, N9 even after 1 hour of incubation
Method: Glass capillary tubes (1 mm×100 mm) were filled with freshly collected lamb cervical mucus and placed vertically into solutions with test compounds as described earlier. After 30 minutes, incubation to allow the diffusion of drugs into mucus, the mucus-containing tubes were dipped vertically into cuvettes with the semen. After 15 minutes, the sperm that moved upwards from the bottom of the capillary tube was evaluated under microscope for traveled distance and the percent of motile sperm.

[7] = tested on: HSV type 1 and 2; experiment: HSV antigen ELISA, summary over HSV-1 and HSV-2 isolates; assay type: cell-based, herpes simplex viruses (HSV) type 1 and 2
[8] = tested on: HIV; conditions: 10 ng/ml; cited from earlier work
[9] = tested on: sperm viability; experiment: Tetrazolium dye reduction (XTT) assay on sperm; assay type: cell-based, human; conditions: highest 100 mcg/ml concentration
Method: The spermatozoa from fertile donors are capable of nitroblue tetrazolium reduction in a same way as the fibroblasts in Example 1. Briefly, sperm were suspended in a 96-well plate in the presence of serial ten-fold dilutions of test compounds and each 180 mcl well received 20 mcl of XTT solution at final concentration 1 mg/ml of XTT (Sigma) with 1% w/v of PMS (Aldrich, Milwaukee, Wis.). Drug untreated spermatozoa served as positive viability references.
(§5) These two methods, XTT and LDH, were used simultaneously on the same semen samples to determine the toxic effect of gramicidin. Both quantitative tests, measuring two independent indicators of sperm viability, indicate that gramicidin is a potent nontoxic agent with antifertility potential.

[10] = tested on: sperm viability; experiment: Lactate dehydrogenase (LDH) release assay on sperm; assay type: cell-based, human; conditions: high doses, serial dilutions 100 mcg-1 ng per ml
Excerpt: The disruption of the sperm membrane by N9-like detergents such as Triton X-100 or by gramicidin S leads to release of intracellular LDH isoenzymes or membrane-associated LDH-X, and an increase in LDH activity can be measured by assaying the supernatant of sperm suspension. The increase in LDH activity can be thus used as an indicator of drug toxicity since cytosolic LDH is released upon cell lysis in the same way as 51Cr is released in radioactive assays. The assay setting is similar to XTT assay and released LDH is quantitated with commercial enzymatic assay (CytoTox96, Promega, Madison, Wis.). An ordinary plate reader was used to record visible wavelength absorbance at 490 nm. The residual LDH activity usually present in seminal plasma or in incubation medium was subtracted as blank values and the % of toxicity was determined as directed by manufacturer's instruction. This assay is very sensitive and results are obtained within 30 minutes.
as §5

[11] = tested on: WI-38 cells; experiment: LDH release from drug-exposed WI-38 cells; conditions: 2 days of treatment, highest 10 mcg dose
Method: as §4

[12] = 0% EDTA, 2 minutes, unprocessed semen
[13] = 0.1% EDTA, 2 minutes, unprocessed semen

## Nc1nc2c(ncn2COCCO)c(=O)[nH]1 [Acyclovir, [2-hydroxyethoxymethyl]guanine]
[1]; Human alphaherpesvirus 2, WI-38, 120 h, read-out: IC50 for protection of WI-38 from cytolytic effect of HSV
  IC50: 0.2 µg/mL (≈ 0.888 µM)
[2]; Human alphaherpesvirus 1, WI-38, read-out: IC50 by HSV antigen ELISA, HSV type 1 strain DM2.1, TK-
  IC50: 77.3 µg/mL (≈ 343 µM)
[2]; Human alphaherpesvirus 1, WI-38, read-out: IC50 by HSV antigen ELISA, HSV type 1 strain KOS, ACV-sensitive
  IC50: 0.4 µg/mL (≈ 1.78 µM)
[2]; Human alphaherpesvirus 1, WI-38, read-out: IC50 by HSV antigen ELISA, HSV type 1 strain PAAr, Polymerase-
  IC50: 52.4 µg/mL (≈ 233 µM)
[3]; Human alphaherpesvirus 2, WI-38, 24 h, read-out: IC50 on HSV replication by antigen ELISA, VR-734 strain of HSV-2, WI-38 cells, day 1 postinfection
  IC50: 0.2 µg/mL (≈ 0.888 µM)
[3]; Human alphaherpesvirus 2, WI-38, read-out: IC50 by HSV antigen ELISA, HSV type 2 strain 186, ACV-sensitive
  IC50: 0.1 µg/mL (≈ 0.444 µM)
[3]; Human alphaherpesvirus 2, WI-38, read-out: IC50 by HSV antigen ELISA, HSV type 2 strain 8708, TK altered
  IC50: 9.9 µg/mL (≈ 44 µM)
[3]; Human alphaherpesvirus 2, WI-38, read-out: IC50 by HSV antigen ELISA, HSV type 2 strain Kost, TK altered
  IC50: 15.8 µg/mL (≈ 70.2 µM)
[3]; Human alphaherpesvirus 2, WI-38, read-out: IC50 by HSV antigen ELISA, HSV type 2 strain VR-734, ACV-sensitive
  IC50: 0.2 µg/mL (≈ 0.888 µM)
[4]
  toxicity to host WI-38 cells: not toxic

## O=C(O)CN(CCN(CC(=O)O)CC(=O)O)CC(=O)O [EDTA, ethylenediaminetetraacetic acid]
[5]; [12]
  IC100 on sperm motility: 5,000 mcg/ml
[5]
  times higher dose required to achieve the effect of gramicidin: ≥ 1250 times
[6]; 0% EDTA
  IC100 in cervical mucus penetration assay: 1,200 mcg/ml

## CCCCCCCCCc1ccc(OCCOCCOCCOCCOCCOCCOCCOCCOCCO)cc1 [Nonoxynol-9, nonoxynol-9]
[5]
  enhancement in activity upon combination with EDTA: less than a two-fold enhancement
  times higher dose required to achieve the effect of gramicidin: At least 50 times
[5]; [12]
  IC100 on sperm motility: 200 µg/mL
[5]; [13]
  IC100 on sperm motility: 125 µg/mL
[5]; at 4 mcg/ml, 2 minutes
  effect on sperm motility: no effect
[6]; 0% EDTA, no IC100 at the highest tested dose
  IC100 in cervical mucus penetration assay: > 1000 µg/mL
[6]; 0.1% EDTA
  IC100 in cervical mucus penetration assay: 100 µg/mL
[6]; Homo sapiens, Sperm, 0% EDTA, footnote: value represents IC50
  IC50: 900 µg/mL (≈ 1460 µM)
[6]
  motility of spermatozoa found in drug-pretreated mucus: retained motility

## gramicidin D
[1]
  IC50 for protection of WI-38 from cytolytic effect of HSV: 10 µg/mL
[7]; average against 3 HSV-1 and 4 HSV-2 isolates
  average 50% inhibitory dose (IC50): 0.3 µg/mL
[7]; both HSV type 1 and 2, 24 hours, range over isolates
  IC50, reduction in viral yield by ELISA: 0.1 to 0.4 µg/mL
[8]
  activity against lab strains and clinical isolates of HIV: active
[9]
  effect on mitochondrial hydrogenases of sperm (XTT): no effect
[2]; HSV type 1 strain DM2.1, TK-
  IC50 by HSV antigen ELISA: 0.3 µg/mL
[2]; HSV type 1 strain KOS, ACV-sensitive
  IC50 by HSV antigen ELISA: 0.2 µg/mL
[2]; HSV type 1 strain PAAr, Polymerase-
  IC50 by HSV antigen ELISA: 0.4 µg/mL
[10]
  effect on LDH release from sperm: negligible
[3]; HSV type 2 strain 186, ACV-sensitive
  IC50 by HSV antigen ELISA: 0.1 µg/mL
[3]; HSV type 2 strain 8708, TK altered
  IC50 by HSV antigen ELISA: 0.3 µg/mL
[3]; HSV type 2 strain Kost, TK altered
  IC50 by HSV antigen ELISA: 0.2 µg/mL
[3]; HSV type 2 strain VR-734, ACV-sensitive
  IC50 by HSV antigen ELISA: 0.3 µg/mL
[3]; VR-734 strain of HSV-2, WI-38 cells, day 1 postinfection
  IC50 on HSV replication by antigen ELISA: 0.3 µg/mL
[11]
  excess LDH released, relative to baseline of untreated controls: ≤ 15%
[4]; MTS, day 2, highest tested 10 mcg/ml dose
  effect on viability (metabolic activity) of WI-38 cells: no significant effect
[4]; at concentrations that exceeded IC50 by at least two orders of magnitude
  toxicity to host WI-38 cells: not toxic
[5]; [12]
  IC100 on sperm motility: 4 µg/mL
[5]; [13]
  IC100 on sperm motility: 0.01 µg/mL
[5]; after washing sperm and resuspending in Earle's balanced salt solution
  reversibility of effect on sperm motility: irreversible effect
[5]; sperm immobilization, without EDTA
  times more potent than N9: 50 times
[5]; with 0.1% of EDTA
  IC100 on sperm motility: 0.01 µg/mL
[6]; 0% EDTA
  IC100 in cervical mucus penetration assay: 3 µg/mL
[6]; 0.1% EDTA
  IC100 in cervical mucus penetration assay: 0.001 µg/mL
[6]
  motility of spermatozoa found in drug-pretreated mucus: immotile
[6]; with 0.1% of EDTA
  concentration that completely prevented penetration of sperm into mucus: 1 ng/mi
